Results: patent publication US20250154180A1, “CRK-LIKE (CRKL) ADAPTOR PROTEIN INHIBITORS AND METHODS OF MAKING AND USING THE SAME” (Rutgers, The State University of New Jersey, priority 2022, published 2025)
Like-named read-outs stand apart in the source and are kept apart here.

Key:
MDA-MB-231 cells = test: XTT cell viability, MDA-MB-231; assay type: cell-based; settings: 24 and 48 hours
Procedure: (§1) FIGS. 8A-8C show results using MDA-MB-231 cells (FIG. 8A) or BXPC3 cells (FIG. 8B), wherein the cells were treated with 5 μM of NC5, Compound III (referred to as “NC5-140-1” in FIGS. 8A-8C), and Compound I (referred to as “NC5-140-2” in FIGS. 8A-8C) for 24-48 hours, wherein the XTT assay was used to determine cell viability. The symbol indicates the significance of NC5 vs. Compounds I and/or III; *p<0.05. Data represent mean±SEM.
(§2) Compound embodiments, compound III and compound I, were also made and evaluated. TNBC cells and PDAC cells were treated with a serial dose of original NC5 and modified NC5 derivatives for 24 and 48 hours. The cell viability will be measured by XTT assay. […] Compound III is referred to as “NC5-140-1” and Compound I is referred to as “NC5-140-2” in FIGS. 8A-8C.

SKHep1 cell line = test: CCK-8 cell viability, SKHep1; assay type: cell-based; settings: 1 uM, 5 uM, 10 uM; 48 hours
Procedure: (§3) In this example, activities of NC5, Compound III, and the known chemotherapeutic, Sorafenib, were evaluated in HepG2, SKHep1, Huh7, and MDA468 cell lines. Cells from each cell line were collected and seeded at 5,000 cells/well in 96-well plates. The cells were incubated for 24 hours before the addition of either DMSO control or drug at various concentrations. After an additional 48 hours of incubation, 3 μL of CCK-8 was added to every well and incubated at 37° C. for 3 hours. Absorbance was measured at 460 nm in a plate reader. Cells from each cell line were treated with NC5 and Compound III at various concentrations (1 uM, 5 uM, 10 uM). The related absorbance was normalized and plotted as line graphs. p-values were determined through two tails student t-tests (*=p<0.5, **=p<0.01, ***=p<0.001).

[1] = system: pCrkL (T207) in Sk-Hep1 cells; test: Flow cytometry of H2O2-induced pCrkL, Sk-Hep1; assay type: cell-based; settings: 50 uM H2O2 1 hour, then 10 uM compound 24 hours
Procedure: In this example, Sk-Hep1 cells were pretreated with 50 uM H2O2 for 1 hour to induce activation of pCrkL and were then incubated with 10 uM NC5 or Compound III for 24 hours. pCrkL (T207) expression was determined by flow cytometry.

[2] = system: PBNK cells killing activity towards MDA-MB-231; test: Cr51 release assay, PBNK killing of MDA-MB-231; assay type: cell-based; settings: 1 uM overnight
Procedure: (§4) PBNK cells were incubated with 1 uM NC5 or Compound III overnight, then cells were harvested for Cr51 release assay to check cell cytotoxicity. […] The star symbol indicates the significance of vehicle control vs. NC5 of the indicated E:T ratios. *p<0.05, **p<0.01, n=3.

Huh7 cell line = test: CCK-8 cell viability, Huh7; assay type: cell-based; settings: 1 uM, 5 uM, 10 uM; 48 hours
Procedure: as §3

BXPC3 cells = test: XTT cell viability, BXPC3; assay type: cell-based; settings: 24 and 48 hours
Procedure: as §1, §2

MDA468 cell line = test: CCK-8 cell viability, MDA468; assay type: cell-based; settings: 1 uM, 5 uM, 10 uM; 48 hours
Procedure: as §3

Sk-Hep1 cells = test: Growth inhibition of Sk-Hep1 cells (cell culture images); assay type: cell-based; settings: 5 μM, 24 hours
Thermodynamic solubility = assay type: physicochemical; settings: thermodynamic from solid
Procedure: In this example, solubility measurement assays were performed using a phosphate buffer (also referred to as “PB”) system and a water system to evaluate thermodynamic solubility. The PB system was at a pH of 7.4 to mimic in vivo environments. For the PB system, the values were determined to be NC5: Thermodynamic Solubility pH=7.4<0.42 μg/mL; Compound III: Thermodynamic Solubility pH=7.4<0.48 μg/mL; and Compound I: Thermodynamic Solubility pH=7.4<0.48 μg/mL. Results for the water assay were as follows: NC5: Thermodynamic Solubility Water<0.42 μg/mL; Compound III: Thermodynamic Solubility Water<0.48 μg/mL; and Compound I: Thermodynamic Solubility Water<0.48 μg/mL.

Sk-Hep1 tumor = test: HCC Sk-Hep1 xenograft model; assay type: in vivo, NSG mice; settings: four-group study, 5.0 μg/g oral gavage
Description: To further test whether the tumor growth inhibition effect of NC5 applied to other solid tumors, the HCC-Sk-Hep1cell line and PDAC-BXPC3 cell line xenograft models were used. Subcutaneous injection of 1.5×10^6 SK-Hep1 or BXPC3 cells in NSG mice, Six-ten days after tumor cell injection, the palpable tumor in NSG mice was confirmed.
(§5) To test the effects of the disclosed compounds on the xenograft mouse models, the HCC-Sk-Hep1 cell line xenograft model in NSG mice and 4T1-Luc orthotopic syngeneic breast tumor model in Balb/c mice was used. After confirming the palpable tumor in NSG or Balb/c mice. […] Compound III is referred to as “NC5-140-1” and Compound I is referred to as “NC5-140-2” in FIGS. 11A-11C.

4T1 breast tumor = test: 4T1-Luc orthotopic syngeneic breast tumor model; assay type: in vivo, Balb/c mice; settings: 5.0 μg/g oral gavage
Description: Syngeneic orthotopic 4T1 breast tumor-bearing mouse model was established by inoculating 5×10^4 4T1-Luc cells mixed with Matrigel were into the left inguinal fat pad of Balb/c mice from Jackson Laboratories. This orthotopic syngeneic breast tumor model is a tool for preclinical testing of anti-cancer drugs or immunotherapy that require an intact immune system to elicit activity.
as §5

[3] = system: PBNK cells killing activity towards SK-Hep1; test: Cr51 release assay, PBNK killing of SK-Hep1; assay type: cell-based; settings: 1 uM overnight
Procedure: as §4

AML cell line (MoLM-13) = test: CCK-8 cell viability, MoLM-13; assay type: cell-based, human; settings: 1 uM, 5 uM, 10 uM; 48 hours
Procedure: In this example, activities of NC5, Compound III, and the known chemotherapeutic, Cytarabine, were evaluated in the AML cell line (MoLM-13). MoLM-13 cells were collected and seeded at 5,000 cells/well in 96-well plates. The cells were incubated for 24 hours before the addition of either DMSO control or drug at various concentrations. After an additional 48 hours of incubation, 3 μL of CCK-8 was added to every well and incubated at 37° C. for 3 hours. Absorbance was measured at 460 nm in a plate reader. […] The related absorbance was normalized and plotted as line graphs. p-values were determined through two tails student t-tests (*=p<0.5, **=p<0.01, ***=p<0.001).

HepG2 cell line = test: CCK-8 cell viability, HepG2; assay type: cell-based; settings: 1 uM, 5 uM, 10 uM; 48 hours
Procedure: as §3

CC(C)=CCc1c2c(c3occ(-c4ccc5c(c4)OS(=O)(=O)O5)c(=O)c3c1O)C=CC(C)(C)O2 [Compound III]
toxic effect compared with NC5 (XTT viability) (MDA-MB-231 cells): comparable toxic effect as NC5 | cell viability (CCK-8) (SKHep1 cell line): decreased cell viability significantly | H2O2 induced pCrkL protein levels [1]: inhibited H2O2 induced pCrkL protein levels | PBNK cells killing activity (Cr51 release) [2]: increased PBNK cells killing activity | cell viability (CCK-8) (Huh7 cell line): decreased cell viability significantly | toxic effect compared with NC5 (XTT viability) (BXPC3 cells): better toxic effect than NC5 | cell viability (CCK-8) (MDA468 cell line): decreased cell viability significantly | toxic effect compared with NC5 (growth inhibition) (Sk-Hep1 cells): better toxic effect than NC5 | solubility thermodynamic (Thermodynamic solubility; aqueous buffer, phosphate buffer (PB) system, pH 7.4, read-out: Thermodynamic Solubility pH=7.4): < 0.48 µg/mL | solubility thermodynamic (Thermodynamic solubility; water system, read-out: Thermodynamic Solubility Water): < 0.48 µg/mL | tumor growth (Sk-Hep1 tumor): inhibit tumor growth | median survival (Sk-Hep1 tumor; vehicle 26 days): 34.5 days | tumor growth (4T1 breast tumor): steady growth inhibition | median survival (4T1 breast tumor; vehicle 25 days): 39.5 days | PBNK cells killing activity (Cr51 release) [3]: increased PBNK cells killing activity | cell viability (CCK-8) (AML cell line (MoLM-13)): decrease cell viability significantly | cell viability (CCK-8) (HepG2 cell line): decreased cell viability significantly
